Measurements from ChEMBL document CHEMBL3991601, “The target landscape of clinical kinase drugs” (Science, 2017).
Active and inactive are the calls of the source.

Tests used:
[1] = target: T1, Very long-chain specific acyl-CoA dehydrogenase, mitochondrial (Homo sapiens, UniProt P49748)
T1 sequence (P49748 whole entry): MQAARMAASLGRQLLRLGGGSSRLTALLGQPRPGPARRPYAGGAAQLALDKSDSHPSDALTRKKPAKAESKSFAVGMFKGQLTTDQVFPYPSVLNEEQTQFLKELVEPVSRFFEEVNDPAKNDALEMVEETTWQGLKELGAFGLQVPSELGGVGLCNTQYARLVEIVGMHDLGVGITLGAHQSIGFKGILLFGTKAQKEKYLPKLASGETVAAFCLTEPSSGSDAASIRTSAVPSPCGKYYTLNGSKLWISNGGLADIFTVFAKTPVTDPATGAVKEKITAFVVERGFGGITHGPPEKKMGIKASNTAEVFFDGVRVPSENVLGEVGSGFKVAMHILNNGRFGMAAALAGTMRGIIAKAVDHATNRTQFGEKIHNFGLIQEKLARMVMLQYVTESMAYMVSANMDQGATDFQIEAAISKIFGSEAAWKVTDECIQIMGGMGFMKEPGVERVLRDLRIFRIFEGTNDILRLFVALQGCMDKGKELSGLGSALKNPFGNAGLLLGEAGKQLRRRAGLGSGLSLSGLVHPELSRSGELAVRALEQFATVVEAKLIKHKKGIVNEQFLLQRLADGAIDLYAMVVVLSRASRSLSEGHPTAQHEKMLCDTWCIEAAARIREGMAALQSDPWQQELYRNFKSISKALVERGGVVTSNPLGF

[2] = target: T2, Serine/threonine-protein kinase A-Raf (Homo sapiens, UniProt P10398)
T2 sequence (P10398 whole entry): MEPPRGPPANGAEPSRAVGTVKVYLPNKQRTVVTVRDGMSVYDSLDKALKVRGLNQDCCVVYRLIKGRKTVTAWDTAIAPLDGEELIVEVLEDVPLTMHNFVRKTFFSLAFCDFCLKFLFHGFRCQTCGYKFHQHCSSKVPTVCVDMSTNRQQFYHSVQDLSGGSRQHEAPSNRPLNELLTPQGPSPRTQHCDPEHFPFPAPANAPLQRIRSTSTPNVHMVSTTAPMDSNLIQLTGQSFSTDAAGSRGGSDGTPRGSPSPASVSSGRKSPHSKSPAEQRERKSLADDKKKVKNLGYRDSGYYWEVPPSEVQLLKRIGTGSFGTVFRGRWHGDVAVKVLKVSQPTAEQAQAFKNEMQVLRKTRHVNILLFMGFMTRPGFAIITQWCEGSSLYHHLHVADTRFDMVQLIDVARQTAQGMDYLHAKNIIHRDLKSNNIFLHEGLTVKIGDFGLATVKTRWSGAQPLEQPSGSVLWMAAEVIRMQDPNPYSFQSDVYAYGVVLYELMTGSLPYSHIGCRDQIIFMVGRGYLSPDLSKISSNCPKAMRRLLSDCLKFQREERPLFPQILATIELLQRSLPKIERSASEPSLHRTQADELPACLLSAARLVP

[3] = target: Putative heat shock protein HSP 90-beta 2 (Homo sapiens, UniProt Q58FF8)
Sequence of Putative heat shock protein HSP 90-beta 2 (Q58FF8 whole entry): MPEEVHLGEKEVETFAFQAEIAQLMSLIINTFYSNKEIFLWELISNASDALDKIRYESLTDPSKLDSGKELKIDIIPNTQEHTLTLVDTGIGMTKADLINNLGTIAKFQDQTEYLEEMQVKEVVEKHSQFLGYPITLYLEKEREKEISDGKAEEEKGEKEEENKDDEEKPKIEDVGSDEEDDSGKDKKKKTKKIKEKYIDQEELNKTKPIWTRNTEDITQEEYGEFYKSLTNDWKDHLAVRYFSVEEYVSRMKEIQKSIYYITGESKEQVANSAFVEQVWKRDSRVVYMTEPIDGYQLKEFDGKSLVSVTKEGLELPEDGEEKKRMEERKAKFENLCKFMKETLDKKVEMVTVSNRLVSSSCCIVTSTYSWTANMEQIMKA

[4] = target: T3, Interleukin-1 receptor-associated kinase 3 (Homo sapiens, UniProt Q9Y616)
T3 sequence (Q9Y616 whole entry): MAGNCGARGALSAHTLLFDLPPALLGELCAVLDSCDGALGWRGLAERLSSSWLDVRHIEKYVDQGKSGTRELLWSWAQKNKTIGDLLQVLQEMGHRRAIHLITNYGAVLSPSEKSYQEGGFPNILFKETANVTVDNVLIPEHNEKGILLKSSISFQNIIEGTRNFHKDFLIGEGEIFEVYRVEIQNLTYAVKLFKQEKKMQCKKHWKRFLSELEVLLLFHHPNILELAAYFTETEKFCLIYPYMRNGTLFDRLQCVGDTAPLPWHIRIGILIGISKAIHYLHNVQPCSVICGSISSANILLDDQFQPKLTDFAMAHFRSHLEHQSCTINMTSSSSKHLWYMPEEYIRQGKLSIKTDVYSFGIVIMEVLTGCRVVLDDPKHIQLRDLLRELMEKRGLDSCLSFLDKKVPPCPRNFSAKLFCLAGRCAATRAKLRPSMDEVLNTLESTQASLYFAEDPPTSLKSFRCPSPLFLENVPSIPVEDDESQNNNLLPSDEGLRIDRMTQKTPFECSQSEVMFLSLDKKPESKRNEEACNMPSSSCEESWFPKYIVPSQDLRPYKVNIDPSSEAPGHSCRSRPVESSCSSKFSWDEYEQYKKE

LIM domain kinase 1 = LIM domain kinase 1 (Homo sapiens, UniProt P53667)
Sequence of LIM domain kinase 1 (P53667 whole entry, the tested form may be a part): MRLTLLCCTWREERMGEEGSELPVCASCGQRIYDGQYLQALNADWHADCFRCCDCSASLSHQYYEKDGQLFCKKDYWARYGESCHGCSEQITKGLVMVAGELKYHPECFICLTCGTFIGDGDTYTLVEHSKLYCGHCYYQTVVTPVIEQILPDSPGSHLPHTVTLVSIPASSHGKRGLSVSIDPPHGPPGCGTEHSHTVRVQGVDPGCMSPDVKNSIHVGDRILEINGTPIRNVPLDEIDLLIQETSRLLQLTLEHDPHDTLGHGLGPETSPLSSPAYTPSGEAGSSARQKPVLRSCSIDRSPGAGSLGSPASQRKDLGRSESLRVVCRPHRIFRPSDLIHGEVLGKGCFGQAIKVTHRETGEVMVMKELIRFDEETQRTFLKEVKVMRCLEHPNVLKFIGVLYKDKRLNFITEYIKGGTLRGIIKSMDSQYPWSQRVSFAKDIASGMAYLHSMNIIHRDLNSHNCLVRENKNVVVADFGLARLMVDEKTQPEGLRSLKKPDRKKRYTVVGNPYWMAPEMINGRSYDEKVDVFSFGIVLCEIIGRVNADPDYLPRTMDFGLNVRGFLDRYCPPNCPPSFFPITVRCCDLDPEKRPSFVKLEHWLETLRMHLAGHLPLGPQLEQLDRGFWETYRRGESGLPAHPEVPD

[5] = target: Mitogen-activated protein kinase 11 (Homo sapiens, UniProt Q15759)
Sequence of Mitogen-activated protein kinase 11 (Q15759 whole entry): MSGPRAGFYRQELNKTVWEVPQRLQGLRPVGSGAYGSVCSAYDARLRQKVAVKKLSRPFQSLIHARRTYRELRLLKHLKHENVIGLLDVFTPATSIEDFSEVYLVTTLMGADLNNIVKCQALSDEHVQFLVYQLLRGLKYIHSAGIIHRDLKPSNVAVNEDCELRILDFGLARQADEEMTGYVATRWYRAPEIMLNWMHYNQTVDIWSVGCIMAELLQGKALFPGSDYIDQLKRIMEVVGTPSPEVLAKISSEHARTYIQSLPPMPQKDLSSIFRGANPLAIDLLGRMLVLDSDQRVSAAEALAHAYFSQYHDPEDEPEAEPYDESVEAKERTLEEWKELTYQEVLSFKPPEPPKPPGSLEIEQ

Pyridoxal kinase = target: T4, Pyridoxal kinase (Homo sapiens, UniProt O00764)
T4 sequence (O00764 whole entry): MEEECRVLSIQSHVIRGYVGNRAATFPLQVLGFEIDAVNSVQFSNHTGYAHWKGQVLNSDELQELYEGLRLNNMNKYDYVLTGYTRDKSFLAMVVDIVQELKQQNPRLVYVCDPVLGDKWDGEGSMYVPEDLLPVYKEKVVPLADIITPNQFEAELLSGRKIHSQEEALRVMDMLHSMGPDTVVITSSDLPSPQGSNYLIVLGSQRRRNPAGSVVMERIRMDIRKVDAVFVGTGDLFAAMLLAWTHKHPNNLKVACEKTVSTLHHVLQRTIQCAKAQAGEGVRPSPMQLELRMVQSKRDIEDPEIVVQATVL

[6] = target: Serine/threonine-protein kinase pim-1 (Homo sapiens, UniProt P11309)
Sequence of Serine/threonine-protein kinase pim-1 (P11309 whole entry): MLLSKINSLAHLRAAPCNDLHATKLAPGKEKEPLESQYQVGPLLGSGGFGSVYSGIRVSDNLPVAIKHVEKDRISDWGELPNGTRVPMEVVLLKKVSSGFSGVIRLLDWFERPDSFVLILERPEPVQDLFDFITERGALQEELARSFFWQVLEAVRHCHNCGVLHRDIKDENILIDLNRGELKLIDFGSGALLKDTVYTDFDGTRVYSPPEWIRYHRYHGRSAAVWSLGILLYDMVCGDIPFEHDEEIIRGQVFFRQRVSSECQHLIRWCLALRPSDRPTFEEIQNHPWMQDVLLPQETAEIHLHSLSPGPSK

[7] = target: Structural maintenance of chromosomes protein 2 (Homo sapiens, UniProt O95347)
Sequence of Structural maintenance of chromosomes protein 2 (O95347 whole entry): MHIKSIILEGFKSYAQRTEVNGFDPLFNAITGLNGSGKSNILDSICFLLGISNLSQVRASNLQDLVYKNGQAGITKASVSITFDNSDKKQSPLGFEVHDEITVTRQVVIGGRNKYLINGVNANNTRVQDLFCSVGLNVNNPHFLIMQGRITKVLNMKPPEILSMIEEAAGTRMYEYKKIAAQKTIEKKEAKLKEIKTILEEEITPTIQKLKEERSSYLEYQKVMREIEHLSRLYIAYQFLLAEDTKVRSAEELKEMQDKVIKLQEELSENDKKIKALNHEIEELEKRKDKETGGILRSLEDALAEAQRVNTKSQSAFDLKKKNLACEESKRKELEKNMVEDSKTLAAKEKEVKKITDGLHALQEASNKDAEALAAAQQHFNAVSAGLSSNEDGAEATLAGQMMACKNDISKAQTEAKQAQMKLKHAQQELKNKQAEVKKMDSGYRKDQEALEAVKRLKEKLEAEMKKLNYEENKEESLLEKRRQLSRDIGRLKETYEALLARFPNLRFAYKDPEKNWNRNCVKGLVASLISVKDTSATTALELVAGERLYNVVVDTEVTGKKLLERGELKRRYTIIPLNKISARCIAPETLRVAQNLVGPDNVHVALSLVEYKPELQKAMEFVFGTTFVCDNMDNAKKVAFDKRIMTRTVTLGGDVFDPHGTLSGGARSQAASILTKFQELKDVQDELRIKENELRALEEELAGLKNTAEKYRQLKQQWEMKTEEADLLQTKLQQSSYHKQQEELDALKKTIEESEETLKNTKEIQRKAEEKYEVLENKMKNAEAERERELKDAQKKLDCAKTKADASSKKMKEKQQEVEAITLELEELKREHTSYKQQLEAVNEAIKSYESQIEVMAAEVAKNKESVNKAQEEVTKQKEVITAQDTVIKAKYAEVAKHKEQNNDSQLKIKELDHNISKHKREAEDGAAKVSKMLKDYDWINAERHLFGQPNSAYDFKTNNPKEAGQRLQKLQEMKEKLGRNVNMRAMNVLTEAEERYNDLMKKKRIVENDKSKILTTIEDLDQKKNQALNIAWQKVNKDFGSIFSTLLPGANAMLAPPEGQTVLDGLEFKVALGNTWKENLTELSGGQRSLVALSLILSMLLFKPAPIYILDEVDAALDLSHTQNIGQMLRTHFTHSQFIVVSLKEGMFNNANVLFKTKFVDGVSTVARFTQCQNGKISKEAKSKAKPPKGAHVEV

[8] = target: T5, Succinate--CoA ligase [ADP-forming] subunit beta, mitochondrial (Homo sapiens, UniProt Q9P2R7)
T5 sequence (Q9P2R7 whole entry): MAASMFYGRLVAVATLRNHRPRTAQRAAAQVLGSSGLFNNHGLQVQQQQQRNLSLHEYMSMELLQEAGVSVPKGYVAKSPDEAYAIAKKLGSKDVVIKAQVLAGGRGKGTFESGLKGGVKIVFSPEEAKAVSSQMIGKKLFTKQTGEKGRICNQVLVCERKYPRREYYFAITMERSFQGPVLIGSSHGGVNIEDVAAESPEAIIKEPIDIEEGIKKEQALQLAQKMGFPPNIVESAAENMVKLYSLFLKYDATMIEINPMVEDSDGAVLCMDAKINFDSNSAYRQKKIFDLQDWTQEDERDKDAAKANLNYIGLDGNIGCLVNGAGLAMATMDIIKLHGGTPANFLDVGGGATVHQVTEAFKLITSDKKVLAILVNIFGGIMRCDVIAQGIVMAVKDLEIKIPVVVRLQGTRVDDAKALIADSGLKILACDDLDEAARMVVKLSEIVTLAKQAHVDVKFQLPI

Measured: Kd
Note: in the data inactive means no Kd found up to 30 µM.

CC[C@H](Nc1ncnc2[nH]cnc12)c1nc2cccc(F)c2c(=O)n1-c1ccccc1 [IDELALISIB]
inactive: [1] > 30 µM | [2] > 30 µM | [3] > 30 µM | [4] > 30 µM | LIM domain kinase 1 > 30 µM | [5] > 30 µM | Pyridoxal kinase > 30 µM | [6] > 30 µM | [7] > 30 µM | [8] > 30 µM

CN1CC[C@@H](c2c(O)cc(O)c3c(=O)cc(-c4ccccc4Cl)oc23)[C@@H]1CO
inactive: [1] > 30 µM | [2] > 30 µM | [3] > 30 µM | [4] > 30 µM | LIM domain kinase 1 > 30 µM | [5] > 30 µM | Pyridoxal kinase > 30 µM | [6] > 30 µM | [7] > 30 µM | [8] > 30 µM

O=C(c1ccc(F)c(F)c1Nc1ccc(I)cc1F)N1CC(O)([C@@H]2CCCCN2)C1 [COBIMETINIB]
inactive: [1] > 30 µM | [2] > 30 µM | [3] > 30 µM | [4] > 30 µM | LIM domain kinase 1 > 30 µM | [5] > 30 µM | Pyridoxal kinase > 30 µM | [6] > 30 µM | [7] > 30 µM | [8] > 30 µM

Cc1cc(-c2cc(O)ccc2Cl)cc2nnc(Nc3ccc(OCCN4CCCC4)cc3)nc12
inactive: [1] > 30 µM | [2] > 30 µM | [3] > 30 µM | [4] > 30 µM | LIM domain kinase 1 > 30 µM | [5] > 30 µM | Pyridoxal kinase > 30 µM | [6] > 30 µM | [7] > 30 µM | [8] > 30 µM
